Literature values as cited in patent publication US10954430B2, “Low-toxicity, low-flammability, environmentally-safe, friction reducer fluid for hydraulic fracturing” (priority 2012, dated 2021).
Values after ≈ are worked out from the molar mass of the structure shown. Where two headings read alike, the source gives them in different places.

What was measured:
[1] = test system: rat
[2] = test system: Pimephales promelas (fathead minnow)
[3] = test system: daphnia magna (water flea)
[4] = test system: most sensitive species; settings: eco-toxicity
[5] = test system: animal; settings: in vivo

In the case of `OCCCO` [propanediol], the LD50 ([1]; oral) is listed as “over 15,000 mg/kg”, the aquatic toxicity profile ([2]; Pimephales promelas (fathead minnow)) is listed as > 9,270 mg/L and the aquatic toxicity profile ([3]; daphnia magna (water flea)) is listed as greater than 7.417 mg/L.

In the case of `CC1COC(=O)O1` (stereo not drawn) [Propylene carbonate, propylene carbonate], the “LD50 for oral toxicity” value ([1]; oral) is listed as greater than 5000 mg/kg.

For `CC(O)COc1ccccc1` (stereo not drawn) [Dowanol PPH, propylene glycol phenyl ether], the LD50 ([1]; in vivo) is given as > 2,000 mg/kg, the LC50 ([2]; Pimephales promelas) is given as 280 µg/mL (≈ 1840 µM) and the LC50 ([3]; Daphnia magna) is given as 370 µg/mL (≈ 2430 µM). For the same compound, the “LC50 for most sensitive species” value [4] was greater than 100 µg/mL and the animal toxicity [5] was “does not have significant animal toxicity”.
